Results reported in US7169568B2, “Method for screening molecules that exert a neurotrophic effect through activation of neurotrophin receptors” (New York University, priority 2000, dated 2007).
Where no end group is shown, it is not given here.

Tested on: TrkA receptors
Assay: TrkA receptor phosphorylation in primary E18 basal forebrain neurons (immunoprecipitation, anti-phosphotyrosine Western blot)
Type: cell-based, rat
Conditions: 10 nM, 2 hours
Protocol: Primary cultures of E18 basal forebrain neurons were prepared as described in the Materials and Methods section of Example 2 and treated with PACAP38 (10 nM) or NGF (10 ng/ml) for various times. Activation of TrkA receptors was assessed by immunoprecipitation and Western blotting with anti-phosphotyrosine antibody.
Immunoprecipitated and Immunoblotting. PC12 (615) cells were maintained in DMEM containing 10% FBS supplemented with 100 units/ml penicillin, 100 μg/ml streptomycin, and 2 mM glutamine plus 200 μg/ml G418. Cells were placed in serum free medium overnight before experiments. Cell lysates from PC12(615) cells, or basal forebrain cells were incubated in lysis buffer (1% Nonidet P-40) for 4 hrs to overnight at 4° C. with anti-pan-Trk polyclonal antibody followed by incubation with protein A-Sepharose beads. Equivalent amounts of protein were analyzed for each condition. The beads were washed five times with lysis buffer, and the immune complexes were boiled in SDS-sample buffer and loaded on SDS-PAGE gels for immunoblot analysis. The immunoreactive protein bands were detected by enhanced chemiluminescence (Amersham Pharmacia).
Basal Forebrain Cell Cultures. […] Cells were counted and plated on culture wells coated with 0.01 mg/ml poly-D-lysine overnight. […]

PACAP27: 27 amino acid form of PACAP (HSDGIFTDSYSRYRKQMAVKKYLAAVL; ends and bridges not checked; UniProt P18509 132-158, looked up, fragment)
Phosphorylation of TrkA receptors: gave rise to phosphorylated TrkA receptors
